For data set [1] the following is noted: cited from earlier work.
The conditions of data set [2]: 10 mg oral dose, five adult males; cited from earlier work.
For data set [3] the following is noted: in vivo; cited from earlier work.
Data set [4] in a line: Hydrocodone simulations (one-compartment model). To be noted: estimated from non-compartmental parameters.
Procedure: Studies of hydrocodone formulations of the present invention were conducted to simulate the profiles associated with twice-daily administration hydrocodone for both single dose and steady state. […] Non-compartmental parameters were used to find estimates of the unit input response and a one-compartment model was assumed for all simulations.
For the absorption rate constant k01, several profiles were simulated using different estimates of k01.
Options 1 and 2 assumed a first order release and option 3 a zero-order release.
The conditions of data set [5]: in vivo; cited from earlier work. The source holds these as a separate data set.

Consider three compounds from patent US20080102121A1 (Elan Pharma International Limited, priority 1998, published 2008).

As usually defined, the bioavailability is the share of a dose that reaches the circulation, judged against a reference dose that is usually intravenous. The Cmax is the maximum level reached in the sampled fluid or tissue. One may read the Tmax as the time at which the peak concentration occurs.

Where a name gives a salt, the structure may show the parent alone.

Turning to “4-hydroxy-2-methyl-N-(5-methyl-2-thiazolyl)-2-H-1,2-benzothiazine-3-carboxamide 1,1-dioxide [Meloxicam]”, the “time of second meloxicam concentration peak” value in data set [1] (fasted steady state conditions, post-dose) is “twelve to fourteen”. The bioavailability in data set [1] (single 30 mg oral dose compared to 30 mg intravenous bolus injection) is given as 89%.

Take `COc1ccc2c3c1OC1C(=O)CCC4C(C2)N(C)CC[C@]314` (stereo partly drawn) [Hydrocodone, 4,5a-Epoxy-3-methoxy-1 7-methylmorphinan-6-one tartrate (1:1) hydrate (2:5)]: in data set [2], the Cmax is 23.6 ± 5.2 ng/mL, the Thalf is 3.8 ± 0.3 h and the Tmax was 1.3 ± 0.3 h. For the same compound, in data set [3], the half life was 4 to 8 h. For the same compound, in data set [4], the K10 is 0.18 and the V/f is given as 334.29 L.

With `CC(=O)Nc1ccc(O)cc1` [acetaminophen], in data set [5], the “doses reported as fatal” value was 15,000-20,0000 milligrams a day.
